Source: PubChem BioAssay AID743472 (Broad Institute, 2014)
Where “and” joins values, the source holds several entries; their conditions need not be identical. Equal values may be shown once. Calls of active or inactive are those of the source.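 The calls were made as follows: active = fitted curve drops past -35% activity change at a concentration no higher than twice the top valid tested dose; inconclusive = no clear call, values can overlap the other calls; inactive = the rest, including activity opposite to the expected direction.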

test system: A549 viability, CellTiter-Glo ATP luminescence, 72 h; assay: viability loss in A549 lung cells – cell-based, luminescence, dry powder, set 12, cytotoxicity control, dose response (AID 743472); conditions: not given

SMILES	AC35
C[C@@]1(C(=O)Nc2ccc(F)nc2)CCCN1c1nc(Nc2cc(C3CC3)[nH]n2)c2cccn2n1	3.48 µM
Nc1ccn([C@@H]2O[C@H](CO)[C@H](O)C2O)c(=O)n1 (stereo partly drawn)	0.686 µM
Cc1nc(Nc2ncc(C(=O)Nc3c(C)cccc3Cl)s2)cc(N2CCN(CCO)CC2)n1	12.2 µM
CC(C)N1c2ccccc2C(c2ccc(F)cc2)C1/C=C/C(O)CC(O)CC(=O)O (stereo not drawn)	23.9 µM
COc1ccc(C2=Nn3c(nnc3-c3ccccc3Cl)SC2)cc1OC	3.06 µM
CN1CCN(CCOc2cc(OC3CCOCC3)c3c(Nc4c(Cl)ccc5c4OCO5)ncnc3c2)CC1	26.1 µM
COc1ccc(C2=Nn3c(nnc3-c3ccccc3F)SC2)cc1OC	6.11 µM
COc1ccccc1-c1nnc2n1N=C(c1ccc3c(c1)OCO3)CS2	0.102 µM
COc1ccc(-c2ccc3c(c2)[C@H]2[C@H](CCN2S(=O)(=O)c2ccc(OC)cc2)[C@@H](CO)N3)cc1	12.5 µM
CC[C@]1(O)CC2CN(CCc3c([nH]c4ccccc34)[C@@](C(=O)OC)(c3cc4c(cc3OC)N(C=O)[C@H]3[C@@](O)(C(=O)OC)[C@H](OC(C)=O)[C@]5(CC)C=CCN6CC[C@]43[C@@H]65)C2)C1 (stereo partly drawn)	0.285 µM
COc1ccc(S(=O)(=O)N2CC[C@@H]3[C@H](CO)Nc4ccc(-c5ccc(C#N)cc5)cc4[C@@H]32)cc1	10.7 µM
COc1ccc(OC)c(-c2nnc3n2N=C(c2ccc(OC)c(OC)c2)CS3)c1	0.192 µM and 0.123 µM
COc1ccc(-c2cc(NC(C)=O)c3ncc(-c4ccc(OC)c(OC)c4)n3c2)cc1	29.9 µM
COc1ccc(C2=Nn3c(nnc3-c3ccccc3OC)SC2)cc1OC	0.205 µM
CN1c2ccc(-c3ccc(C#N)cc3)cc2[C@H]2[C@H](CCN2S(=O)(=O)c2cccc(F)c2)[C@H]1CO	6.56 µM
Cc1c([C@H](C(Cl)Cl)[C@H](O)[C@H]2C[C@H](C)C(=O)O2)ccc2c1C(=O)[C@H]1[C@H]2C[C@@H](Br)[C@@]23O[C@@H](CO[C@H]2O)C[C@]13C	3.44 µM
COc1ccc(S(=O)(=O)N2CC[C@@H]3[C@@H](CO)N(C)c4ccc(-c5ccc(F)cc5)cc4[C@@H]32)cc1	7.15 µM
COc1ccccc1S(=O)(=O)N1CC[C@@H]2[C@@H](CO)Nc3ccc(-c4ccc(C#N)cc4)cc3[C@@H]21	22.6 µM
COc1ccccc1-c1nnc2n1N=C(c1ccc(O)c(O)c1)CS2	0.314 µM
CCc1c2c(nc3ccc(O)cc13)-c1cc3c(c(=O)n1C2)COC(=O)C3(O)CC (stereo not drawn)	0.579 µM
COc1ccc(S(=O)(=O)N2CC[C@@H]3[C@@H](CO)Nc4ccc(-c5ccc(C#N)cc5)cc4[C@@H]32)cc1	9.8 µM
COc1cccc2c1C(=O)c1c(O)c3c(c(O)c1C2=O)C[C@@](O)(C(=O)CO)C[C@@H]3O[C@H]1C[C@H](N)[C@H](O)[C@H](C)O1	0.333 µM
COc1ccc(-c2ccc3c(c2)[C@H]2[C@H](CCN2S(=O)(=O)c2ccc(OC)cc2)[C@@H](CO)N3C)cc1	9.11 µM
N#Cc1ccc(-c2ccc3c(c2)[C@H]2[C@H](CCN2S(=O)(=O)c2ccccc2F)[C@@H](CO)N3)cc1	17 µM
N#Cc1ccc(-c2ccc3c(c2)[C@H]2[C@H](CCN2S(=O)(=O)c2cccc(F)c2)[C@@H](CO)N3)cc1	21.4 µM

SMILES	AC35
COc1cc(C2C(C#N)=C(N)Oc3cc(N(C)C)ccc32)cc2c1OCO2 (stereo not drawn)	0.0402 µM
Clc1ccccc1-c1nnc2n1N=C(c1ccc3c(c1)OCO3)CS2	0.945 µM
COc1ccc(-c2cc(NC=O)c3ncc(-c4ccc(OC)c(OC)c4)n3c2)cc1	1.18 µM
Nc1ncnc2c1c(-c1cccc(OCc3ccccc3)c1)cn2C1CC(CN2CCCC2)C1 (stereo not drawn)	13.7 µM
Cc1cc(Nc2cc(N3CCN(C)CC3)nc(Sc3ccc(NC(=O)C4CC4)cc3)n2)n[nH]1	10.2 µM
N#CC1=C(N)Oc2cc(N)ccc2C1c1ccccc1 (stereo not drawn)	22.9 µM
COc1cccc(C2C(C#N)=C(N)Oc3cc(N)ccc32)c1 (stereo not drawn)	4.76 µM
N#CC1=C(N)Oc2cc(N)ccc2C1c1cccc(F)c1 (stereo not drawn)	10.8 µM
O=C(Cc1ccc(-c2ccc(OCCN3CCOCC3)cc2)cn1)NCc1ccccc1	0.0854 µM
COc1cccc(S(=O)(=O)N2CC[C@@H]3[C@@H](CO)Nc4ccc(-c5ccc(C#N)cc5)cc4[C@@H]32)c1	26.4 µM
N#CC1=C(N)Oc2cc(N)ccc2C1c1ccc2ccccc2c1 (stereo not drawn)	28.4 µM
CCOC(=O)CCNc1cc(N2CCc3ccccc3CC2)nc(-c2ccccn2)n1	37.2 µM
N#CC1=C(N)Oc2cc(N)ccc2C1c1ccccc1Cl (stereo not drawn)	32.9 µM
CN(C)c1ccc2c(c1)OC(N)=C(C#N)C2c1cccc(F)c1 (stereo not drawn)	0.0738 µM
N#CC1=C(N)Oc2ccc3ccccc3c2C1c1cccc(F)c1 (stereo not drawn)	3.88 µM
C=C([C@@H](O)[C@@H](C)O)[C@@H](OC)[C@]1(C)Cc2cc3cc(O[C@H]4CC(OC5CC(O)C(O)C(C)O5)C(O)C(C)O4)cc(O)c3c(O)c2C(=O)[C@H]1OC1CC(OC2CC(OC3CC(C)(O)C(O)C(C)O3)C(O)C(C)O2)C(O)C(C)O1 (stereo partly drawn)	0.111 µM
Cc1cccc(C2C(C#N)=C(N)Oc3cc(N)ccc32)c1 (stereo not drawn)	3.89 µM
N#CC1=C(N)Oc2cc3c(cc2C1c1cccc(Br)c1)OCO3 (stereo not drawn)	0.0624 µM
N#CC1=C(N)Oc2cc(N)ccc2C1c1cccc(Br)c1 (stereo not drawn)	0.488 µM
Cn1cc(-c2ccncc2)c(-c2ccc(OCc3ccc4ccccc4n3)cc2)n1	19.3 µM
COc1ccc(S(=O)(=O)N2CC[C@@H]3[C@@H](CO)Nc4ccc(-c5cccc(C#N)c5)cc4[C@@H]32)cc1	13.2 µM
N#CC1=C(N)Oc2cc(O)ccc2C1c1cccc(Br)c1 (stereo not drawn)	11.4 µM
COc1ccc(C(=O)CC2(O)C(=O)Nc3c(Cl)ccc(Cl)c32)cc1 (stereo not drawn)	5.48 µM
N#CC1=C(N)Oc2cc(OC(=O)c3ccccc3)ccc2C1c1cccc(Br)c1 (stereo not drawn)	19.4 µM

test system: not listed separately; assay: as above; conditions: A549 viability, CellTiter-Glo ATP luminescence, 72 h; at 1.35 µM (top of the series)

SMILES	activity change, negative = cytotoxicity
COc1cc([C@@H]2c3cc4c(cc3[C@@H](O[C@@H]3O[C@@H]5CO[C@@H](C)O[C@H]5[C@H](O)[C@H]3O)[C@H]3COC(=O)[C@H]23)OCO4)cc(OC)c1O	-9.02% (inactive)

same assay, conditions: A549 viability, CellTiter-Glo ATP luminescence, 72 h; at 1.6 µM (top of the series)

SMILES	activity change, negative = cytotoxicity
CCN(CCO)CCCOc1ccc2c(Nc3cc(CC(=O)Nc4cccc(F)c4)[nH]n3)ncnc2c1	-5.27% (inactive)

same assay, conditions: A549 viability, CellTiter-Glo ATP luminescence, 72 h; at 3 µM (top of the series)

SMILES	activity change, negative = cytotoxicity
CC[C@@]1(O)C(=O)OCc2c1cc1n(c2=O)Cc2cc3c(CN(C)C)c(O)ccc3nc2-1	-28% (inactive)

same assay, conditions: A549 viability, CellTiter-Glo ATP luminescence, 72 h; at 6 µM (top of the series)

SMILES	activity change, negative = cytotoxicity
Clc1ccc(-c2cnc3ccc(-c4ccccc4)cn23)cc1	9.24% (inactive)

same assay, conditions: A549 viability, CellTiter-Glo ATP luminescence, 72 h; at 12 µM (top of the series)

SMILES	activity change, negative = cytotoxicity
COc1ccc(NC(=O)Nc2ccc3c(c2)C(=O)N([C@@H](C)CO)C[C@H](C)[C@H](CN(C)Cc2ccc4c(c2)OCO4)O3)cc1	-11.8% (inactive)

same assay, conditions: A549 viability, CellTiter-Glo ATP luminescence, 72 h; at 13.5 µM (top of the series)

SMILES	activity change, negative = cytotoxicity
CC(C)(O)CCc1ccc(O)c2c(=O)c3c(O)c4c(cc3oc12)O[C@H]1OC=C[C@@]41O	-4.12% (inactive)

same assay, conditions: A549 viability, CellTiter-Glo ATP luminescence, 72 h; at 26 µM (top of the series)

SMILES	activity change, negative = cytotoxicity
Cc1ccccc1C1C(C#N)=C(N)Oc2cc(N)ccc21 (stereo not drawn)	-2.49% (inactive)
CCC(C)(C)C(=O)O[C@H]1C[C@@H](C)C=C2C=C[C@H](C)[C@H](CC[C@@H]3C[C@@H](O)CC(=O)O3)[C@H]21	2.27% (inactive)
CN(C(=O)CCCOc1ccc2[nH]c(=O)ccc2c1)C1CCCCC1	-2.41% (inactive)
O=C(Nc1c(Cl)cncc1Cl)c1ccc(OC(F)F)c(OCC2CC2)c1	2.06% (inactive)
COC(=O)c1ccc(C2C(C#N)=C(N)Oc3cc(N)ccc32)cc1 (stereo not drawn)	4.1% (inactive)
COc1ccc(C2=Nn3c(nnc3-c3ccccc3)SC2)cc1OC	-5.8% (inactive)
COc1cc(Nc2ncc3c(n2)-c2ccc(Cl)cc2C(c2c(F)cccc2OC)=NC3)ccc1C(=O)O	-19.8% (inactive)
N#CC1=C(N)Oc2cc(N)ccc2C1c1ccc(Cl)cc1 (stereo not drawn)	-4.23% (inactive)
COc1ccc(C2C(C#N)=C(N)Oc3cc(N)ccc32)cc1 (stereo not drawn)	0.547% (inactive)
Cc1ccc(S(=O)(=O)N2CC[C@@H]3[C@@H](CO)Nc4ccc(-c5ccc(C#N)cc5)cc4[C@@H]32)cc1	-24.8% (inactive)
N#CC1=C(N)Oc2cc(N)ccc2C12C(=O)Nc1ccc(Br)cc12 (stereo not drawn)	-0.931% (inactive)
COc1ccc(C2CNC(=O)C2)cc1OC1CCCC1 (stereo not drawn)	3.58% (inactive)
COc1ccccc1C1C(C#N)=C(N)Oc2cc(N)ccc21 (stereo not drawn)	3.41% (inactive)
COc1ccc(S(=O)(=O)N(C(C)=O)c2ccc(OC(C)=O)c3ccccc23)cc1[N+](=O)[O-]	-4.12% (inactive)
Cc1ccc(C2C(C#N)=C(N)Oc3cc(N)ccc32)cc1 (stereo not drawn)	2.98% (inactive)
CC1(C)CC(c2nc(-c3ccc4ccc(-c5ccccc5)nc4c3)c3c(N)nccn23)C1	-21.6% (inactive)
CN1c2ccc(-c3ccc(C#N)cc3)cc2[C@H]2[C@H](CCN2S(=O)(=O)c2ccc(F)cc2)[C@H]1CO	10.6% (inactive)
COc1ccc(CNc2nc(N3CCC[C@H]3CO)ncc2C(=O)NCc2ncccn2)cc1Cl	-5.08% (inactive)
Cc1ccc([N+](=O)[O-])cc1S(=O)(=O)N(C)C	-2.86% (inactive)
C[C@]1(c2nc3c(C(N)=O)cccc3[nH]2)CCCN1	8.64% (inactive)

same assay, conditions: A549 viability, CellTiter-Glo ATP luminescence, 72 h; at 50 µM (top of the series)

SMILES	activity change, negative = cytotoxicity
O=P1(NCCCl)OCCCN1CCCl (stereo not drawn)	1.11% (inactive)

same assay, conditions: A549 viability, CellTiter-Glo ATP luminescence, 72 h; at 100 µM (top of the series)

SMILES	activity change, negative = cytotoxicity
CCC(C)C(=O)OC1CC(C)C=C2C=CC(C)C(CCC(O)CC(O)CC(=O)O)C21 (stereo not drawn)	-13.1% (inactive)

same assay, conditions: A549 viability, CellTiter-Glo ATP luminescence, 72 h; at 110 µM (top of the series)

SMILES	activity change, negative = cytotoxicity
O=C(c1cc(Cc2n[nH]c(=O)c3ccccc23)ccc1F)N1CCN(C(=O)C2CC2)CC1	-14.2% (inactive)
